Test results from PubChem BioAssay AID284 (DTP/NCI, 2004).
Several values for one entry are separate records, joined by “and”; a condition that tells them apart may be missing. Equal entries are not always repeated. Inconclusive results and toxic doses are left out. Starred links: 1 amine or outer side, 2 acyl side, 3 side chain; linkers in the order of their positions; H or OH if unused. Positions of bridges follow the written chain, without caps; N, C: chain ends. Non-standard residues stand in square brackets, D forms with d. Residues, ends and D or L forms follow the SMILES beside them. Chains are numbered I, II in the order given. Actinocin(9to1) = Cc1c2oc3c(C)ccc(C(=O)[*:1])c3nc-2c(C(=O)[*:2])c(N)c1=O; aThr = C[C@H](O)[C@H](N)C(=O)O; NMeV = CN[C@H](C(=O)O)C(C)C; Sar = CNCC(=O)O

System: BDF1 mice, L1210/MTX-resistant leukemia ip, survival T/C
Test: NCI In Vivo Anticancer Drug Screen. Data for tumor model L1210 Leukemia resistant to Methotrexate; NSC 740 (intraperitoneal) in B6D2F1 (BDF1) mice
Conditions: endpoint: mean survival time, higher = longer survival
Description: The antitumor activity of compounds was measured in mice bearing transplantable tumors. Survival or tumor size were measured and the results are expressed as the measurement made in the treated group (T) divided by the measurement made in the vehicle treated control group (C). The tumor model used in this assay is L1210 Leukemia resistant to Methotrexate; NSC 740 (intraperitoneal) in B6D2F1 (BDF1) mice

[1] = dose: 250.0 mg/kg/injection, schedule: Q01DX Z (ip), vehicle: saline

## CCOC(N)=O
dose: 62.5 mg/kg/injection, schedule: Q01DX010 (ip), vehicle: saline
  T/C: 87 % of control
dose: 125.0 mg/kg/injection, schedule: Q01DX010 (ip), vehicle: saline
  T/C: 98 % of control
dose: 188.0 mg/kg/injection, schedule: Q01DX Z (ip), vehicle: saline
  T/C: 102 % of control
[1]
  T/C: 91 % of control
dose: 375.0 mg/kg/injection, schedule: Q01DX Z (ip), vehicle: saline
  T/C: 87 % of control and 99 % of control
dose: 500.0 mg/kg/injection, schedule: Q01DX010 (ip), vehicle: saline
  T/C: 88 % of control
dose: 750.0 mg/kg/injection, schedule: Q01DX Z (ip), vehicle: saline
  T/C: 93 % of control
dose: 1500.0 mg/kg/injection, schedule: Q01DX Z (ip), vehicle: saline
  T/C: 100 % of control

## C[N+](C)(C)c1ncnc2nc[nH]c12
dose: 15.0 mg/kg/injection, schedule: Q01DX010 (ip), vehicle: saline
  T/C: 94 % of control

## CNC=O
dose: 125.0 mg/kg/injection, schedule: Q01DX Z (ip), vehicle: saline
  T/C: 117 % of control
dose: 150.0 mg/kg/injection, schedule: Q01DX Z (ip), vehicle: saline
  T/C: 104 % of control
[1]
  T/C: 111 % of control
dose: 300.0 mg/kg/injection, schedule: Q01DX Z (ip), vehicle: saline
  T/C: 156 % of control
dose: 500.0 mg/kg/injection, schedule: Q01DX Z (ip), vehicle: saline
  T/C: 112 % of control

## CCN(CC)c1ccc2cc3ccc(=[N+](CC)CC)cc-3oc2c1
dose: 1.0 mg/kg/injection, schedule: Q01DX010 (ip), vehicle: saline
  T/C: 100 % of control
dose: 2.0 mg/kg/injection, schedule: Q01DX010 (ip), vehicle: saline
  T/C: 91 % of control
dose: 4.0 mg/kg/injection, schedule: Q01DX010 (ip), vehicle: saline
  T/C: 98 % of control

## Nc1ccc(C(=O)NO)cc1
dose: 112.0 mg/kg/injection, schedule: Q01DX015 (ip), vehicle: carboxymethylcellulose (CMC)
  T/C: 109 % of control
dose: 225.0 mg/kg/injection, schedule: Q01DX015 (ip), vehicle: carboxymethylcellulose (CMC)
  T/C: 117 % of control
dose: 450.0 mg/kg/injection, schedule: Q01DX015 (ip), vehicle: carboxymethylcellulose (CMC)
  T/C: 100 % of control

## Cc1c2oc3c(C)ccc(C(=O)N[C@@H]4C(=O)N[C@H](C(C)C)C(=O)N5CCC[C@H]5C(=O)N(C)CC(=O)N(C)[C@@H](C(C)C)C(=O)O[C@H]4C)c3nc-2c(C(=O)N[C@@H]2C(=O)N[C@H](C(C)C)C(=O)N3CCC[C@H]3C(=O)N(C)CC(=O)N(C)[C@@H](C(C)C)C(=O)O[C@H]2C)c(N)c1=O (I: [aThr][dV]P[Sar][NMeV] / II: [aThr][dV]P[Sar][NMeV]; ester I:1-I:C, II:1-II:C; linker I:N-II:N via Actinocin(9to1))
dose: 12.0 micrograms/kg/injection, schedule: Q01DX Z (ip), vehicle: saline
  T/C: 157 % of control
dose: 12.5 micrograms/kg/injection, schedule: Q01DX Z (ip), vehicle: saline
  T/C: 103 % of control
dose: 32.0 micrograms/kg/injection, schedule: Q01DX Z (ip), vehicle: saline
  T/C: 92 % of control and 104 % of control
dose: 50.0 micrograms/kg/injection, schedule: Q01DX Z (ip), vehicle: saline
  T/C: 114 % of control and 117 % of control
dose: 63.0 micrograms/kg/injection, schedule: Q01DX Z (ip), vehicle: saline
  T/C: 98 % of control and 104 % of control
dose: 125.0 micrograms/kg/injection, schedule: Q01DX Z (ip), vehicle: saline
  T/C: 117 % of control and 101 % of control
